Activity calls are given as the source filed them.
Columns and labels:
[1] = molecular target: Beta-lactamase (Salmonella choleraesuis (strain SC-B67), UniProt Q5J463); assay: Epi-absorbance-based counterscreen for selective VIM-2 inhibitors: dose response biochemical high throughput screening assay to identify inhibitors of TEM-1 serine-beta-lactamase.
[2] = molecular target: T1, Beta-lactamase (Pseudomonas aeruginosa, UniProt Q79MP6); assay: […] counterscreen for selective VIM-2 inhibitors: dose response biochemical high throughput screening assay to identify inhibitors of IMP-1 metallo-beta-lactamase.
T1 sequence (Q79MP6 whole entry): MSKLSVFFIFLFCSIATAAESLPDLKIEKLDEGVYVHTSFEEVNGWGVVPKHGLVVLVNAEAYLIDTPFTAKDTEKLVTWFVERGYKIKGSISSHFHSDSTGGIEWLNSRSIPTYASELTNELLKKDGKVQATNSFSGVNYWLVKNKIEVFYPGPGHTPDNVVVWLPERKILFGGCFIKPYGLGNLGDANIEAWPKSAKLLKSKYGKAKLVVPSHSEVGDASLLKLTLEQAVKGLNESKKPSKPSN

[3] = molecular target: T1, Beta-lactamase; assay: inhibition of IMP-1 beta-lactamase activity – biochemical, epi-absorbance, selectivity assay for VIM-2 inhibitor project, dose response (AID 1920)
[4] = molecular target: Kallikrein-7 (Homo sapiens, UniProt P49862); assay: Fluorescence Intensity-based biochemical primary high throughput dose response assay to identify activators of kallikrein-7 (K7) zymogen.
Sequence of Kallikrein-7 (P49862 whole entry): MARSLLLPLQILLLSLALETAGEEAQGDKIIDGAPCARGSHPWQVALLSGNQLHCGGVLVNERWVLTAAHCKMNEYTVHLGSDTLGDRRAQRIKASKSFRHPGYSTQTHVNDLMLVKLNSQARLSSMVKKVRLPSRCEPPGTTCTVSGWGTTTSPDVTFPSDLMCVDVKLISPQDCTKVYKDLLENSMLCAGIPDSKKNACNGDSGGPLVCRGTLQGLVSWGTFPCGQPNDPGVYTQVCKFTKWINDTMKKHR

[5] = general cell-killing toxicity readout – plate reader, dry powder samples, cytotoxicity control for PAX8 inhibitor project, dose response (AID 743021); type: functional, cell-based
[6] = reduced cellular PGC1a acetyl-lysine signal – cell-based, cherry-picked samples, dose response (AID 720514); type: functional;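 also: potency may reflect raised or lowered acetylation signal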
[7] = blockers of bursicon-stimulated LGR2 cAMP reporter – cell-based, HEK293, CRE-luciferase reporter, cherry pick, set 2, dose response (AID 743343); type: functional;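 also: transfected cells were stimulated with diluted bursicon conditioned medium after compound addition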
[8] = molecular target: Paired box protein Pax-8 (Homo sapiens, UniProt Q06710); assay: PAX8 transcriptional activity inhibition in RMG-I – RMG-I cells, luciferase, cherry-pick, dose response (AID 687027); type: functional, cell-based;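 also: luciferase reporter driven by Pax8 target thyroperoxidase promoter measured by SteadyGlo luminescence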
Sequence of Paired box protein Pax-8 (Q06710 whole entry): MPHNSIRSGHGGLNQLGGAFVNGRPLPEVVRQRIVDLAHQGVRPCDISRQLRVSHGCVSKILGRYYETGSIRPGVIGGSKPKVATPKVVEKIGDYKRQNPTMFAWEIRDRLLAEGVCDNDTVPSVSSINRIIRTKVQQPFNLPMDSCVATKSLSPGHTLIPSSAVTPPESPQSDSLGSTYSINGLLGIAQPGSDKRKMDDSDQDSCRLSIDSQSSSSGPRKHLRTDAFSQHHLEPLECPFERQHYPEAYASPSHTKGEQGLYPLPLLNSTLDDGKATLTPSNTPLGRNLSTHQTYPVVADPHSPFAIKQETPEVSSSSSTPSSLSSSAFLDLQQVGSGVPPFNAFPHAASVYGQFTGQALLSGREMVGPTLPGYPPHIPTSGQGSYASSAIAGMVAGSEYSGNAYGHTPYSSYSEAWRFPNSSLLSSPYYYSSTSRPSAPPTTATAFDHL

[9] = toxicity toward HepG2 liver cells – cell-based, plate reader, cherry-pick, antagonist series, cytotoxicity control, dose response (AID 743416); type: functional
[10] = A549 cell cytotoxicity, dose response, cytotoxicity control, plate reader, cherry-pick, antagonist series (AID 743412); type: functional, cell-based
[11] = blockade of melanocortin 4 receptor signaling – cell-based, plate reader, cherry pick, counter-screen for LGR2 antagonist project, dose response (AID 743444); type: functional;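 also: transfected HEK 293 cells stimulated with alpha-MSH peptide; potency of inhibitors of the alpha-MSH evoked signal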
[12] = viability loss in HEK293 cells – cell-based, plate reader, cherry-picked samples, cytotoxicity control, dose response (AID 743446); type: functional
[13] = molecular target: Mitogen-activated protein kinase 10 (Homo sapiens, UniProt P53779); assay: Dose response biochemical screening assay for inhibitors of c-Jun N-Terminal Kinase 3 (JNK3). [Related pubchem assays: 746 ]
Sequence of Mitogen-activated protein kinase 10 (P53779 whole entry): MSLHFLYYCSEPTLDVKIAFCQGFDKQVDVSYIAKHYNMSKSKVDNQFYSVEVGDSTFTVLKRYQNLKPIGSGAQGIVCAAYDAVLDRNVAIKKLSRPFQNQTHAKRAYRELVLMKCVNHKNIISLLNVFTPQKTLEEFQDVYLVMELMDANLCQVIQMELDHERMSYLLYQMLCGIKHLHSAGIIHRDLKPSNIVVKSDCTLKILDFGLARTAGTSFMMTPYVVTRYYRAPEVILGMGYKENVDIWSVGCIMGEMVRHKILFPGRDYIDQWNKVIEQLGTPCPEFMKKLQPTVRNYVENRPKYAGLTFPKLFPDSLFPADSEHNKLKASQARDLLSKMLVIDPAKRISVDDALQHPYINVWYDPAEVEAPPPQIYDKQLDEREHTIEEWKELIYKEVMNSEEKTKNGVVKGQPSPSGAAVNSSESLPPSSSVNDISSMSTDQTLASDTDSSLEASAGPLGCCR

[14] = P. falciparum Dd2 growth inhibitors, dose response, SYBR Green, cherry-picked samples (AID 1159567); type: functional, cell-based
[15] = toxicity to human HepG2 hepatoma cells – cell-based, plate reader, dry powder samples, cytotoxicity control, dose response (AID 1159569); type: functional;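 also: inhibitor potency with signal falling toward the positive control level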
[16] = growth inhibition of PfATP4-mutant resistant parasites – NITD609-resistant line, SYBR Green, dry powder, dose response (AID 1159571); type: functional, cell-based;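 also: parasites synchronized at ring stage by sorbitol before testing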
[17] = Dd2 malaria parasite growth inhibition potency – SYBR Green, dry powder samples, dose response (AID 1159566); type: functional, cell-based;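 also: potency for growth inhibition with lower SYBR green DNA signal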
[18] = growth inhibition of yeast DHODH-expressing 3D7 parasites – SYBR Green, dry powder samples, dose response (AID 1159570); type: functional, cell-based;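 also: parasite growth measured after 72 hours of compound exposure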
[19] = toxicity to human hepatoma HepG2 cells – cell-based, cherry-picked samples, cytotoxicity control, dose response (AID 1159577); type: functional
[20] = Late stage counterscreen for inhibitors of Trypanosoma brucei methionyl tRNA synthetase (MetRS): Luminescence-based cell-based high throughput dose response assay to identify compounds that are cytotoxic to Jurkat human T lymphocyte cells.; type: functional
[21] = molecular target: T2, Methionyl-tRNA synthetase, putative (Trypanosoma brucei brucei, UniProt Q38C91); type: functional, Trypanosoma brucei brucei strain 927/4 GUTat10.1
T2 sequence (Q38C91 whole entry): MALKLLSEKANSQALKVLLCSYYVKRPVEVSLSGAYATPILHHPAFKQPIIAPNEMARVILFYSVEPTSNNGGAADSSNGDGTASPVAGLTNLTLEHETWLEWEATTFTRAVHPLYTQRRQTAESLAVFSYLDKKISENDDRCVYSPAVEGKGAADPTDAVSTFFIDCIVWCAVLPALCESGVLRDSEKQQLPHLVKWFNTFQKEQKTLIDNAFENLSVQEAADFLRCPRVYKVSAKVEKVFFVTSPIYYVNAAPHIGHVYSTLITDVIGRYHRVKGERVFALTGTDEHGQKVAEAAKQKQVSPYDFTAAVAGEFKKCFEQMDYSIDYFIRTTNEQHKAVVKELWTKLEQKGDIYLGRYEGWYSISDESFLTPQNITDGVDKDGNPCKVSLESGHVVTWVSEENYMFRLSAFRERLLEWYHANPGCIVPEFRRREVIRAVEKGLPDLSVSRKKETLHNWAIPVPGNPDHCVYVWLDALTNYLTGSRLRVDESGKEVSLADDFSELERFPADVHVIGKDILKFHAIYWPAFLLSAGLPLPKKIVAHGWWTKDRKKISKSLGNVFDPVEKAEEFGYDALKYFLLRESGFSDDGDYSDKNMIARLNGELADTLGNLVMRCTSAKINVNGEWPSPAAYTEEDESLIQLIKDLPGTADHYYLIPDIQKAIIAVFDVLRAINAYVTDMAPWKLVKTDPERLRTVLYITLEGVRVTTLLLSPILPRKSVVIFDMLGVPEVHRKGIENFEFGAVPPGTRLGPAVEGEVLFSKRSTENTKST

[22] = molecular target: T3, Heat shock factor protein 1 (Mus musculus, UniProt P38532); assay: enhancement of HSF1-driven luciferase signal – cell-based, NIH3T3, luminescence, dose retest, confirmation (AID 435004); type: functional;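 also: stress induced by proteasome inhibitor MG132 added 30 min after compound; luciferase reporter driven by HSF1 response element in NIH3T3 cells; actives raise luminescence as potentiators of the MG132 stress response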
T3 sequence (P38532 whole entry): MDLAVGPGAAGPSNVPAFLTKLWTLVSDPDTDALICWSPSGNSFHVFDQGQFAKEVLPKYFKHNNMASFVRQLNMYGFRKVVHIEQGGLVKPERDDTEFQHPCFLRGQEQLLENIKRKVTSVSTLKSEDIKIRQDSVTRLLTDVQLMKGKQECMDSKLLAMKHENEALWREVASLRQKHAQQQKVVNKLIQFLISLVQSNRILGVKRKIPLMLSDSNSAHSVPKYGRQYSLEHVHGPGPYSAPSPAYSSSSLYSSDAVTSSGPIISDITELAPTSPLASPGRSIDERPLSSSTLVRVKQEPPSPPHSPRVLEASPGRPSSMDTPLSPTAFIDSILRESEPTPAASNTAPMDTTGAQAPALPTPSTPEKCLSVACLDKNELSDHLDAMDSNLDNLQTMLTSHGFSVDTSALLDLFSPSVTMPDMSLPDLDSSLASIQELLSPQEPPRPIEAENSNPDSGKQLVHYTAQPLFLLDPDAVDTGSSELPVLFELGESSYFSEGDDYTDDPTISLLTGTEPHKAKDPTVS

[23] = Counterscreen for inhibitors of Trypanosoma brucei methionyl tRNA synthetase (MetRS): Luminescence-based cell-based high throughput dose response assay to identify compounds that are cytotoxic to Jurkat human T lymphocyte cells.; type: functional
[24] = molecular target: T2, Methionyl-tRNA synthetase, putative; type: functional, Trypanosoma brucei brucei strain 927/4 GUTat10.1; remark: listed apart in the source
[25] = cytotoxicity toward HCT116 cells – cell-based, CellTiter-Glo luminescence, IC50, dose response (AID 1117332); type: functional; details: HCT-116
[26] = HCT116 cell viability decrease, GSK3B pretreatment – CellTiter-Glo, IC50, dose response (AID 1117339); type: functional; details: HCT-116
[27] = RKO cell viability reduction, dose response, CellTiter-Glo luminescence (AID 1117322); type: functional
[28] = Reduced DLD-1 viability, concentration-response, CellTiter-Glo luminescence (AID 1117352); type: functional
[29] = cytotoxicity toward Colo320 cells – cell-based, CellTiter-Glo luminescence, IC50, dose response (AID 1117334); type: functional; details: COLO 320
[30] = CellTiter-Glo luminescence survival assay, SW480 colon tumor line, concentration-response curve, half-maximal inhibitory concentration (AID 1117338); type: functional
[31] = rise of 4N DNA cells, HeLa – IC50, dose response (AID 1117351); type: functional, cell-based
[32] = SNU-C1 cell viability reduction, dose response, CellTiter-Glo luminescence (AID 1117323); type: functional, cell-based
[33] = rise of 2N DNA cells, HeLa – IC50, dose response (AID 1117349); type: functional, cell-based
[34] = cytotoxicity toward HT-29 cells – cell-based, CellTiter-Glo luminescence, IC50, dose response (AID 1117330); type: functional

Sequence of Beta-lactamase (Salmonella choleraesuis (strain SC-B67), UniProt Q5J463) (Q5J463 whole entry): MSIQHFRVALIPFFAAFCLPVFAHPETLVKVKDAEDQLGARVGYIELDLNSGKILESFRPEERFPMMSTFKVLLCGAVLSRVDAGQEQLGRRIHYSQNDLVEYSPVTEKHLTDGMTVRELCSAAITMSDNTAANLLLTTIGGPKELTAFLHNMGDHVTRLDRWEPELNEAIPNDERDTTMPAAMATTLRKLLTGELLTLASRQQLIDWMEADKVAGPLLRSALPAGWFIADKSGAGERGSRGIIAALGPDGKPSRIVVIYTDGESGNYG

Cc1cc(=O)oc2c3c(cc(OCC(=O)N[C@@H](Cc4ccccc4)C(=O)O)c12)OC(C)(C)CC3
IC50 [1]: > 59.6 µM (inactive) | IC50 [2]: > 59.6 µM (inactive) | IC50 [3]: > 59.6 µM (inactive) | EC50 [4]: 49 µM (inactive)

O=C(O)CCN1c2cccc3cccc(c23)S1(=O)=O
EC50 [4]: > 7.72 µM (active)

COc1ccc(-n2nnnc2C(CCc2ccccc2)N2CCC(n3c(O)nc4ccccc43)CC2)cc1 (configuration not stated)
AC50 [5]: 24.5 µM (active) | AC50 [6]: 21.4 µM (active) | AC50 [7]: 11.3 µM (active) | AC50 [8]: 7.54 µM (active) | AC50 [9]: > 52 µM (inactive) | AC50 [10]: 14.7 µM (active) | AC50 [11]: 9.43 µM (active) | AC50 [12]: 10.1 µM (active)

O=C(CCCCCn1c(=S)[nH]c2ccccc2c1=O)N1CCC2(CC1)OCCO2
IC50 [13]: 29.7 µM (not active)

C[C@@H]1CN([C@@H](C)CO)C(=O)c2cccc(NC(=O)c3nc4ccccc4s3)c2O[C@@H]1CN(C)C(=O)Nc1cccc2ccccc12
AC50 [14]: 2.98 µM (active) | AC50 [15]: 71.7 µM (active) | AC50 [16]: 2 µM (active) | AC50 [17]: 2.51 µM (active) | AC50 [18]: 2.73 µM (active)

COc1ccccc1CN1C[C@@H]2N[C@H](C1)[C@@H]2c1ccc(-c2ccccc2OC)cc1
AC50 [19]: 11.6 µM (active) | AC50 [14]: 4.29 µM (active)

O=C(NCCc1nc2ccccc2[nH]1)c1ccc(Cl)c([N+](=O)[O-])c1
IC50 [20]: > 83.3 µM (inactive) | IC50 [21]: 0.221 µM (active) | EC50 [22]: > 260 µM (inactive) | IC50 [23]: 44.4 µM (inactive) | IC50 [24]: 0.17 µM (active)

Cc1nc(O)c(C(=O)/C=C/c2ccccc2)c2c1CCCC2
AC50 [6]: 8.12 µM (active)

CN1CCC(Nc2ncc3ncnc(Nc4ccc(F)c(Cl)c4)c3n2)CC1
IC50 [25]: > 20 µM (inactive) | IC50 [26]: 3.38 µM (active) | IC50 [27]: 3.17 µM (active) | IC50 [28]: 2.29 µM (active) | IC50 [29]: 11.7 µM (inactive) | IC50 [30]: 2.35 µM (active) | IC50 [31]: > 10 µM (inactive) | IC50 [32]: 12 µM (inactive) | IC50 [33]: > 10 µM (inactive) | IC50 [34]: 4 µM (active)

Source: ChEMBL document CHEMBL1201862, “PubChem BioAssay data set” (2004)
